Measured values taken from patent publication US4395969A (priority 1981, dated 1983).

Assays:
in vivo = conditions: steelhead trout
longnose sucker = test: Exploratory bioassay, longnose sucker; type: in vivo, C. catastomus; conditions: less than 24 h; 15 C; 47 to 61 mm
Method: (§1) Cursory bioassays were made with small numbers of other fishes and a crayfish (Pacifasticus klamathensis) to check on the universal selectivity of the toxicants. The fishes included Arctic grayling (Thymallus arcticus), longnose sucker (C. catastomus), largescale sucker, (C. macrocheilus), and spotted sucker (Minytrema melanops).
A series of 24-hour bioassays was made with the longnose sucker (1 fish per aquarium) at a concentration range of 0.1 mg/l to 4.5 mg/l of 2, 2-dichlorovinyl diethyl phosphate. The chemical killed the longnose sucker (47 to 61 mm) at a concentration of 0.2 mg/l and higher in less than 24 hours at 15 C.
(§2) Three longnose suckers (about 125 mm) and three Arctic grayling (about 125 mm) were exposed to 10 μg/l of 2, 2, 2, 1-tetrachloroethyl diethyl phosphate. The suckers died between 14 and 22 hours at 13 C. The grayling were not affected in 48-hour biassays.

chinook salmon [1] = test: Deactivation with potassium permanganate, mortality of chinook salmon; type: in vivo, O. tschawytscha
chinook salmon [2] = conditions: chinook salmon, in vivo, 96 h
brown bullhead catfish = test: Bioassay, brown bullhead catfish; type: in vivo, Ictalurus nebulosus; conditions: for mortality: 96 h, 140-185 mm; for mortality / time in which all bullhead catfish died: artesian well water, 10 C; for time in which all bullhead catfish died: fry 28-40 mm; for selectivity to bullhead catfish: in vivo
Method: Bioassays (10 fish per concentration) were made with brown bullhead catfish fry (28-40 mm) at concentrations of 0, 2, and 4 mg/l of 2, 2-dichlorovinyldiethyl phosphate in artesian well water (load, 0.5 g/l). All the Bullhead catfish died in 12 hours at 2 mg/l and in 6 hours at 4 mg/l of the chemical at 10 C.
A second series of bioassays (10 fish per concentration) was made with larger bullhead catfish (140-185 mm) at 0.6 and 1.0 mg/l concentrations of 2, 2-dichlorovinyl diethyl phosphate in artesian well water (load, 1.0 g/l) at 10 C. In 96 hours 50% mortality occurred at 0.6 mg/l and 100% mortality at 1.0 mg/l.

Arctic grayling = test: Exploratory bioassay, Arctic grayling; type: in vivo, Thymallus arcticus; conditions: 10 μg/l; 48 h
Method: as §1, §2

CCOP(=O)(OC=C(Cl)Cl)OCC [2,2-dichlorovinyl diethyl phosphate]
LC50 at 96 h (in vivo): 7.1 mg/L
LC50 at 192 h (in vivo): 2.8 mg/L
concentration that killed longnose sucker (longnose sucker): ≥ 0.2 mg/L
deactivation by 1 equivalent weight of permanganate (chinook salmon [1]; 15 C): about 25%
effect of potassium permanganate on mortality (chinook salmon [1]; excessive concentrations of 2 Cl): delayed mortality
LC50 (chinook salmon [2]): 3.4 mg/L
mortality (brown bullhead catfish; 0.6 mg/l): 50%
mortality (brown bullhead catfish; 1.0 mg/l): 100%
time in which all bullhead catfish died (brown bullhead catfish; 2 mg/l): 12 h
time in which all bullhead catfish died (brown bullhead catfish; 4 mg/l): 6 h
selectivity to bullhead catfish (brown bullhead catfish): specific for the carp and bullhead catfish
selectivity to bullhead catfish (brown bullhead catfish; listed as dichloro-compound): slightly more selective to bullhead than to stickleback

CCOP(=O)(OCC)OC(Cl)C(Cl)(Cl)Cl (stereo not shown) [2,2,2,1-tetrachloroethyl diethyl phosphate]
effect on grayling (Arctic grayling): not affected
